Assays:
[1] = Cytotoxicity against mouse ScN2a cells assessed as maximal tolerant concentration; format: cell-based; settings: read-out: Activity
[2] = Antiprion activity against scrapie prion protein RML infected mouse Ch2 cells assessed as reduction of scrapie prion protein accumulation; format: cell-based
[3] = tested on: ScN2a; test: Antiprion activity against scrapie prion protein RML infected mouse ScN2a cells assessed as drug level required for more than 99 percent reduction of scrapie prion protein by immunoblot analysis; format: cell-based
[4] = Selectivity index, ratio of maximal tolerant concentration for mouse ScN2a cells to EC50 for scrapie prion protein RML infected mouse ScN2a cells
[5] = tested on: Ch2; test: Antiprion activity against scrapie prion protein RML infected mouse Ch2 cells assessed as drug level required for more than 99 percent reduction of scrapie prion protein; format: cell-based
[6] = Antiprion activity against scrapie prion protein RML infected mouse ScN2a cells assessed as reduction of scrapie prion protein accumulation by immunoblot analysis; format: cell-based
[7] = Antiprion activity against human prion Fukuoka-1 infected mouse F3 cells assessed as reduction of scrapie prion protein accumulation; format: cell-based; settings: N2a #58 F3
[8] = Antiprion activity against scrapie prion protein 22L infected mouse N167 cells assessed as reduction of scrapie prion protein accumulation; format: cell-based
[9] = tested on: N167; test: Antiprion activity against scrapie prion protein 22L infected mouse N167 cells assessed as drug level required for more than 99 percent reduction of scrapie prion protein; format: cell-based
[10] = tested on: N2a #58 F3; test: Antiprion activity against human prion Fukuoka-1 infected mouse F3 cells assessed as drug level required for more than 99 percent reduction of scrapie prion protein; format: cell-based

Row | SMILES | MNTC [1] | EC50 [2] | Activity [3] | Selectivity Index [4] | Activity [5] | EC50 [6] | EC50 [7] | EC50 [8] | Activity [9] | Activity [10]
1 | CCN(CC)CCNc1c2ccc(Cl)cc2nc2ccc(OC)cc12 | 4000 nM | 700 nM | 0.1 µM | 190 | 3 µM | 21 nM |  |  |  | 
2 | COc1ccc2nc3cc(Cl)ccc3c(NCCCN(C)C)c2c1 | 1000 nM |  | 0.3 µM | 9 |  | 110 nM |  |  |  | 
3 | COc1ccc2nc3cc(Cl)ccc3c(NC3CCN(Cc4ccccc4)CC3)c2c1 | 2000 nM | 410 nM | 1 µM | 5 | 1 µM | 420 nM | 800 nM | 490 nM | 1.5 µM | 
4 | COc1ccc2nc3cc(Cl)ccc3c(Nc3ccc(N(C)C)cc3)c2c1 | 2000 nM |  |  | 4 |  | 510 nM |  |  |  | 
5 | CCN(CC)c1ccc(Nc2c3ccccc3nc3ccccc23)cc1 | 400 nM |  |  | 2 |  | 240 nM |  |  |  | 
6 | COc1ccc2nc3cc(Cl)ccc3c(Nc3ccccc3N(C)C)c2c1 | 5000 nM |  | 0.8 µM | 20 |  | 250 nM |  |  |  | 
7 | COc1ccc2nc3cc(Cl)ccc3c(Nc3cccc(N(C)C)c3)c2c1 | 2000 nM |  |  | 6 |  | 320 nM |  |  |  | 
8 | Nc1c2ccccc2nc2ccccc12 [AMINACRINE] | 2500 nM |  |  |  |  |  |  |  |  | 
9 | COc1ccc2nc3cc(Cl)ccc3c(Nc3ccc(N4CCOCC4)cc3)c2c1 | 4000 nM |  | 3 µM | 3 |  | 1280 nM |  |  |  | 
10 | COc1ccc2nc3cc(Cl)ccc3c(Nc3cccc(N4CCN(C)CC4)c3)c2c1 | 4000 nM | 380 nM | 1 µM | 14 | 1.5 µM | 290 nM | 1490 nM | 1190 nM | 3 µM | 3.5 µM
11 | COc1ccc2nc3cc(Cl)ccc3c(Nc3cccc(N4CCCCC4)c3)c2c1 | 4000 nM |  | 0.5 µM | 22 |  | 180 nM |  |  |  | 
12 | COc1ccc2nc3cc(Cl)ccc3c(N)c2c1 | 4000 nM |  | 0.4 µM | 30 |  | 130 nM |  |  |  | 
13 | CCN(CC)c1ccc(Nc2c3ccc(Cl)cc3nc3ccc(OC)cc23)cc1 | 2000 nM |  | 1.5 µM | 4 |  | 480 nM |  |  |  | 
14 | COc1ccc2nc3cc(Cl)ccc3c(N3CCN(C)CC3)c2c1 | 4000 nM | > 2000 nM | 1.8 µM | 11 |  | 360 nM |  |  |  | 
15 | COc1ccc2nc3cc(Cl)ccc3c(Nc3cccc(N4CCOCC4)c3)c2c1 | 3000 nM |  |  | 3 |  | 900 nM |  |  |  | 
16 | COc1ccc2nc3cc(Cl)ccc3c(Nc3ccc(N4CCCCC4)cc3)c2c1 | 9000 nM |  | 7 µM | 2 |  | 4240 nM |  | 4290 nM |  | 
17 | CCN(CC)CCCC(C)Nc1c2ccc(Cl)cc2nc2ccc(OC)cc12 (stereo not given) [QUINACRINE] | 2500 nM | 460 nM | 0.8 µM | 11 | 2 µM | 230 nM | 1880 nM | 590 nM |  | 
18 | COc1ccc2nc3cc(Cl)ccc3c(Nc3cccc(N4CCCC4)c3)c2c1 | 2000 nM |  |  | 2 |  | 1060 nM |  |  |  | 
19 | COc1ccc2nc3cc(Cl)ccc3c(Nc3ccc(N4CCN(C)CC4)cc3)c2c1 | 2500 nM | 220 nM | 0.4 µM | 25 | 1.2 µM | 100 nM | 680 nM | 420 nM | 1.5 µM | 1.5 µM
20 | CCN(CC)c1cccc(Nc2c3ccc(Cl)cc3nc3ccc(OC)cc23)c1 | 3000 nM |  | 2.5 µM | 3 |  | 1010 nM |  |  |  | 
21 | CCN(CC)CCCNc1c2ccc(Cl)cc2nc2ccc(OC)cc12 | 1000 nM |  | 0.3 µM | 7 |  | 140 nM |  |  |  | 
22 | CCN(CC)CCCCNc1c2ccc(Cl)cc2nc2ccc(OC)cc12 | 1000 nM |  | 0.4 µM | 7 |  | 150 nM |  |  |  | 
